Test results published in PubChem BioAssay (NCI).
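Following 48 hours of exposure in 96-well plates, responses at five concentrations were used to interpolate endpoints linearly. The concentration for full growth arrest is given as TGI.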

Key:
Assay in all cases: NCI tumour cell line growth inhibition, 48 h
[1] = test system: MOLT-4 leukemia
[2] = test system: MDA-MB-435
[3] = test system: HT29 colon
[4] = test system: OVCAR-8 ovarian
[5] = test system: ACHN renal
[6] = test system: OVCAR-3 ovarian
[7] = test system: HCT-15 colon
[8] = test system: SK-MEL-2 melanoma
[9] = test system: DU-145 prostate
[10] = test system: SR leukemia
[11] = test system: IGROV1 ovarian

| Structure (SMILES) | TGI [1] [µM] | TGI [2] [µM] | TGI [3] [µM] | TGI [4] [µM] | TGI [5] [µM] | TGI [6] [µM] | TGI [7] [µM] | TGI [8] [µM] | TGI [9] [µM] | TGI [10] [µM] | TGI [11] [µM] |
| --- | --- | --- | --- | --- | --- | --- | --- | --- | --- | --- | --- |
| COc1ccc(COCC[C@H](C)OC2OC(CO[Si](C)(C)C(C)(C)C)C(O)C(O)C2O)cc1 (stereo partly drawn) | > 100 | > 100 | > 100 | > 100 | > 100 | > 100 | > 100 | > 100 | > 100 | > 100 | > 100 |
| CCOC(=O)/C=C(/C(=O)OCC)n1ccc(=O)n(Cc2cn(CCCCOC(C)=O)nn2)c1=O | > 100 | > 100 | > 100 | > 100 | > 100 | > 100 | > 100 | > 100 | > 100 | > 100 | > 100 |
| CCCCC/C=C\C=C\CCCCCCCCC(=O)OC | > 100 | – | > 100 | > 100 | > 100 | > 100 | > 100 | > 100 | > 100 | > 100 | > 100 |
| Cc1ccc(NC(=O)c2cccc(OP(=O)(Nc3ccc(C)cc3)Nc3ccc(C)cc3)c2)cc1 | 6.37 | > 100 | 14.9 | > 100 | 20.6 | > 100 | > 100 | > 100 | > 100 | 17.1 | > 100 |
| COc1cc(-c2nc(N)c(C#N)c3c2CCS(=O)(=O)c2ccc(C)cc2-3)cc(OC)c1OC | – | > 100 | > 100 | 26.9 | > 100 | > 100 | > 100 | > 100 | > 100 | > 100 | > 100 |
| CCOC(=O)/C(C1=NCCN1C)=C(\O)c1ccccc1 | > 100 | – | > 100 | > 100 | > 100 | > 100 | > 100 | > 100 | – | > 100 | > 100 |
| Cc1cn(C2CC(O)C(Cn3nncc3Cn3cnc4c(N)ncnc43)O2)c(=O)[nH]c1=O (stereo not drawn) | > 100 | > 100 | – | > 100 | > 100 | > 100 | > 100 | > 100 | > 100 | > 100 | > 100 |
| O=[N+]([O-])C(C(Cl)=C(Cl)Cl)=C(N1CCCCC1)N1CCCCC1 | > 100 | – | > 100 | > 100 | > 100 | > 100 | > 100 | – | > 100 | > 100 | > 100 |
| COc1cc2c(cc1NC(=O)c1ccccc1)c1c(n2S(=O)(=O)c2ccccc2)CCN(S(=O)(=O)c2ccccc2)C1 | > 100 | > 100 | > 100 | > 100 | > 100 | > 100 | > 100 | > 100 | > 100 | > 100 | > 100 |
| Cn1c2ncccc2n2c(=O)cc(O)cc12 | 60.1 | > 100 | > 100 | > 100 | > 100 | > 100 | > 100 | > 100 | > 100 | > 100 | 31.5 |
| O=C1CC(n2ccnc2)c2c(Cl)sc(Cl)c21 (stereo not drawn) | > 24 | 49.6 | 43.6 | 27.8 | 33.2 | 30.3 | 28.1 | 54.9 | 30.6 | > 19.8 | 26.6 |
| Cc1cc(NS(=O)(=O)c2ccc(NO)cc2)no1 | > 100 | 41.4 | > 100 | > 100 | > 100 | > 100 | > 100 | > 100 | > 100 | 46.2 | > 100 |
| COC(=O)c1cc(/C=C/C(=O)Cc2ccccc2)cn1S(=O)(=O)c1ccccc1 | > 100 | – | > 100 | > 100 | > 100 | > 100 | > 100 | > 100 | > 100 | > 100 | > 100 |
| CC1(C)CC(=O)c2c(-c3ccc(Cl)cc3)c(C#N)c(=S)n(C3OC(CO)C(O)C(O)C3O)c2C1 (stereo not drawn) | > 100 | 80.8 | > 100 | > 100 | > 100 | 90.7 | > 100 | 43.9 | > 100 | > 100 | > 100 |
| O=c1ccn(C/C=C/c2ccccc2)c(=S)n1C/C=C/c1ccccc1 | 92.6 | > 100 | > 100 | > 100 | > 100 | > 100 | > 100 | > 100 | > 100 | > 100 | > 100 |
| CC1(C)N=C(C(N)=O)c2ncn(Cc3ccccc3)c2N1 | – | > 100 | > 100 | > 100 | > 100 | > 100 | > 100 | > 100 | > 100 | > 100 | > 100 |
| COc1ccc2nc3ccc(OC)cc3c(S(=O)Cc3ccccc3)c2c1 (stereo not drawn) | > 23.6 | 27.8 | 10.6 | 12.7 | 15.2 | 26.1 | > 48.9 | 33 | 5.85 | > 29.8 | 21.5 |
| COc1ccc(S(=O)(=O)N/N=C(\C)CN2C(=O)c3ccccc3C2=O)cc1OC | > 100 | – | > 100 | > 100 | > 100 | > 100 | > 100 | > 100 | – | > 100 | > 100 |
| O=C(Nc1ccccc1)OCCN=c1c2ccccc2ccc2ccccc12 | 42.6 | 79.6 | 38.8 | 84 | 61.8 | 44.2 | > 100 | 29.1 | > 100 | 54.5 | > 100 |
| CC/C(Cl)=N\OC(=O)Nc1ccc(F)c(Cl)c1 | 2.11 | 39.4 | 55.2 | 36.8 | 26.7 | 8.03 | 35.5 | 33.5 | 34.2 | 13.1 | 34.7 |
| CCOC(=O)c1c2ccccc2n2c(=O)n(-c3ccc(OC)cc3)nnc12 | – | > 100 | – | 97.1 | > 100 | > 91.1 | > 100 | > 100 | > 100 | > 100 | > 100 |
